# How the values were obtained:
# Assay type in all cases: in vivo
# [1] = test system: Glycine max; test: Herbicidal activity, postemergence test (Example 66); conditions: post; 1000 g/ha; assessed visually twenty days after spraying
# Procedure: (§1) To evaluate their herbicidal activity, compounds according to the invention are tested using a representative range of plants: ZEAMX Zea mays ORYSA Oryza sativa GLXMA Glycine max BEAVA Beta vulgaris LIUUT Linum usitatissimum AVEFA Avena fatua ECHCG Echinochloa crus-galli SINAL Sinapsis alba
# (§2) The tests fall into two categories, preemergence and postemergence. The preemergence tests involve spraying a liquid formulation of the compound onto the soil in which the seeds of the plant species mentioned above have recently been sown. The postemergence tests involve spraying a liquid formulation of the compound onto seedling plants of the above species.
# (§3) The soil used in the tests is a prepared horticultural loam.
# (§4) The formulations used in the tests are prepared from solutions of the test compounds in acetone containing 0.4% by weight of an alkylphenol/ethylene oxide condensate available under the trademark TRITON X-155. These acetone solutions are diluted with water and the resulting formulations applied at dosage levels corresponding to 1000 g of active material per hectare in a volume equivalent to 900 litres per hectare.
# (§5) In the preemergence tests, untreated sown soil, and in the postemergence tests, untreated soil bearing seedling plants, are used as controls.
# (§6) The herbicidal effects of the test compounds are assessed visually twenty days after spraying the foliage and the soil and are recorded on a 0-9 scale. A rating of 0 indicates growth as untreated control, a rating of 9 indicates death. An increase of 1 unit on the linear scale approximates to an 11% increase in the level of effect.
# [2] = test system: Echinochloa crus-galli; test: as above; design: key: A rating of 0 indicates growth as untreated control; a rating of 9 indicates death; conditions: post; 1000 g/ha; assessed visually twenty days after spraying
# Procedure: as §1, §2, §3, §4, §5, §6
# [3] = test system: Linum usitatissimum; test: as above; design: key: A rating of 0 indicates growth as untreated control; a rating of 9 indicates death; conditions: post; 1000 g/ha; assessed visually twenty days after spraying
# Procedure: as §1, §2, §3, §4, §5, §6
# [4] = test system: Beta vulgaris; test: as above; design: key: A rating of 0 indicates growth as untreated control; a rating of 9 indicates death; conditions: post; 1000 g/ha; assessed visually twenty days after spraying
# Procedure: as §1, §2, §3, §4, §5, §6
# [5] = test system: Avena fatua; test: as above; design: key: A rating of 0 indicates growth as untreated control; a rating of 9 indicates death; conditions: post; 1000 g/ha; assessed visually twenty days after spraying
# Procedure: as §1, §2, §3, §4, §5, §6
# [6] = test system: Oryza sativa; test: as above; design: key: A rating of 0 indicates growth as untreated control; a rating of 9 indicates death; conditions: post; 1000 g/ha; assessed visually twenty days after spraying
# Procedure: as §1, §2, §3, §4, §5, §6
# [7] = test system: Zea mays; test: as above; design: key: A rating of 0 indicates growth as untreated control; a rating of 9 indicates death; conditions: post; 1000 g/ha; assessed visually twenty days after spraying
# Procedure: as §1, §2, §3, §4, §5, §6
# [8] = test system: Sinapsis alba; test: as above; design: key: A rating of 0 indicates growth as untreated control; a rating of 9 indicates death; conditions: post; 1000 g/ha; assessed visually twenty days after spraying
# Procedure: as §1, §2, §3, §4, §5, §6
# [9] = test system: Echinochloa crus-galli; test: Herbicidal activity, preemergence test (Example 66); design: key: A rating of 0 indicates growth as untreated control; a rating of 9 indicates death; conditions: pre; 1000 g/ha; assessed visually twenty days after spraying
# Procedure: as §1, §2, §3, §4, §5, §6
# [10] = test system: Linum usitatissimum; test: as above; design: key: A rating of 0 indicates growth as untreated control; a rating of 9 indicates death; conditions: pre; 1000 g/ha; assessed visually twenty days after spraying
# Procedure: as §1, §2, §3, §4, §5, §6
# [11] = test system: Beta vulgaris; test: as above; design: key: A rating of 0 indicates growth as untreated control; a rating of 9 indicates death; conditions: pre; 1000 g/ha; assessed visually twenty days after spraying
# Procedure: as §1, §2, §3, §4, §5, §6
# [12] = test system: Avena fatua; test: as above; design: key: A rating of 0 indicates growth as untreated control; a rating of 9 indicates death; conditions: pre; 1000 g/ha; assessed visually twenty days after spraying
# Procedure: as §1, §2, §3, §4, §5, §6
# [13] = test system: Oryza sativa; test: as above; design: key: A rating of 0 indicates growth as untreated control; a rating of 9 indicates death; conditions: pre; 1000 g/ha; assessed visually twenty days after spraying
# Procedure: as §1, §2, §3, §4, §5, §6
# [14] = test system: Glycine max; test: as above; design: key: A rating of 0 indicates growth as untreated control; a rating of 9 indicates death; conditions: pre; 1000 g/ha; assessed visually twenty days after spraying
# Procedure: as §1, §2, §3, §4, §5, §6
# [15] = test system: Zea mays; test: as above; design: key: A rating of 0 indicates growth as untreated control; a rating of 9 indicates death; conditions: pre; 1000 g/ha; assessed visually twenty days after spraying
# Procedure: as §1, §2, §3, §4, §5, §6
# [16] = test system: Sinapsis alba; test: as above; design: key: A rating of 0 indicates growth as untreated control; a rating of 9 indicates death; conditions: pre; 1000 g/ha; assessed visually twenty days after spraying
# Procedure: as §1, §2, §3, §4, §5, §6
SMILES,"herbicidal effects on a 0-9 scale, GLXMA [1]","herbicidal effects on a 0-9 scale, ECHCG [2]","herbicidal effects on a 0-9 scale, LIUUT [3]","herbicidal effects on a 0-9 scale, BEAVA [4]","herbicidal effects on a 0-9 scale, AVEFA [5]","herbicidal effects on a 0-9 scale, ORYSA [6]","herbicidal effects on a 0-9 scale, ZEAMX [7]","herbicidal effects on a 0-9 scale, SINAL [8]","herbicidal effects on a 0-9 scale, ECHCG [9]","herbicidal effects on a 0-9 scale, LIUUT [10]","herbicidal effects on a 0-9 scale, BEAVA [11]","herbicidal effects on a 0-9 scale, AVEFA [12]","herbicidal effects on a 0-9 scale, ORYSA [13]","herbicidal effects on a 0-9 scale, GLXMA [14]","herbicidal effects on a 0-9 scale, ZEAMX [15]","herbicidal effects on a 0-9 scale, SINAL [16]"
"CC(NC(=O)c1nc(-c2ccc(F)cc2)ns1)c1cccs1 (racemic) [Example 15, (R/S)-3-(4-Fluorophenyl)-[1,2,4]thiadiazole-5-carboxylic acid, [1-(2-thienyl)ethyl]amide]",7,7,7,9,4,0,3,9,0,0,0,0,0,0,0,0
"CC(NC(=O)c1nc(-c2cccc(C(F)(F)F)c2)ns1)c1cccs1 (racemic) [Example 21, (R/S)-3-(3-Trifluoromethylphenyl)-[1,2,4]thiadiazole-5-carboxylic acid, [1-(2-thienyl)ethyl]amide]",7,8,7,8,7,0,0,9,0,0,0,0,0,0,0,0
CC(NC(=O)c1nsc(-c2ccccc2)n1)c1cccs1 (racemic) [Example 22],6,5,6,9,4,2,2,7,2,0,2,0,0,0,1,3
"CC(NC(=O)c1nsc(-c2ccc(Cl)cc2)n1)c1cccs1 (racemic) [Example 23, (R/S)-5-(4-Chlorophenyl)-[1,2,4]thiadiazole-3-carboxylic acid, [1-(2-thienyl)ethyl]amide]",7,8,7,9,4,0,0,9,0,0,0,0,0,0,0,0
C[C@H](NC(=O)c1nc(-c2ccccc2)ns1)c1ccccc1 [Example 5],4,8,7,5,6,0,2,9,0,0,4,0,0,0,0,0
CC(C)(C)c1nsc(C(=O)NCc2cccs2)n1 [Example 7],3,0,4,8,0,0,0,8,0,0,0,0,0,0,0,0
"C[C@H](NC(=O)c1nc(C(C)(C)C)ns1)c1ccccc1 [Example 8, (S)-3-tert-Butyl-[1,2,4]thiadiazole-5-carboxylic acid, 1-(phenylethyl)amide]",6,8,9,9,6,0,0,9,0,0,8,0,0,0,0,8
CC(C)c1nsc(C(=O)NCc2cccs2)n1 [Example 9],2,5,2,7,0,0,2,7,2,0,0,0,0,0,0,4
"CC(C)c1nsc(C(=O)N[C@@H](C)c2ccccc2)n1 [Example 10, (S)-3-Isopropyl-[1,2,4]thiadiazole-5-carboxylic acid, 1-(phenylethyl)amide]",5,8,8,8,5,0,2,8,5,4,7,0,0,0,0,7

# Source: patent EP0726261A1, “Herbidical 1,2,4 thiadiazoles” (American Cyanamid Company, priority 1995, dated 1996)
